Reference: patent publication US20080242688A1, “Method 741” (ASTRAZENECA AB, priority 2007, published 2008)
Values joined by “and” are separate entries in the source; they are usually repeats but may differ in a detail not shown here. Identical values can stand only once.

What was measured:
Ames test = assay: Ames test
Excerpt: The genotoxic potential of AZD0328 has been evaluated in the Ames test and in the Mouse lymphoma test. AZD0328 was not mutagenic in either of these tests.

Multiple dose PK/TK, dog = format: in vivo; parameters: AUC/dose: unit not given beside the values
Excerpt: This section provides a summary of the pharmacokinetic and metabolism properties of AZD0328 derived from in vivo studies. […] The derived PK/TK parameters from these studies are presented in Table 4 for single dose studies (DMR4, 0619LR, 20030191PCR, DMO16, DMB10, DMW12, 50190, 0190DD and 03.330/1), and are presented in Table 5 multiple dose PK/TK studies (DMR4, 0612AR, DMB15, 50190, 0190DD and 0295AD).

[1] = both sexes, dog, in vivo, po, 34.6 mg/kg, dog 2F+2M, 0190DD, 34.6 mg/kg (160 μmol/kg) split in two 6 h apart, capsules fasted, day 1
[2] = both sexes, dog, in vivo, po, 34.6 mg/kg, dog 2F+2M, 0190DD, 34.6 mg/kg (160 μmol/kg) split in two 6 h apart, capsules fasted, day 7
[3] = both sexes, dog, in vivo, po, 34.6 mg/kg, dog 2F+2M, 0190DD, 34.6 mg/kg (160 μmol/kg) split in two 6 h apart, solution fasted, day 1
[4] = both sexes, dog, in vivo, po, 34.6 mg/kg, dog 2F+2M, 0190DD, 34.6 mg/kg (160 μmol/kg) split in two 6 h apart, solution fasted, day 7
[5] = both sexes, dog, in vivo, po, 138 mg/kg, dog 2F+2M, 0190DD, 138 mg/kg (640 μmol/kg) split in two 6 h apart, capsules fed, day 1
[6] = both sexes, dog, in vivo, po, 138 mg/kg, dog 2F+2M, 0190DD, 138 mg/kg (640 μmol/kg) split in two 6 h apart, capsules fed, day 7
[7] = female, Beagle, dog, in vivo, po, 8.65 mg/kg, dog 3F, 0295AD, 8.65 mg/kg (40 μmol/kg) split in two 6 h apart, capsules fed, day 7
[8] = female, Beagle, dog, in vivo, po, 8.65 mg/kg, dog 3F, 0295AD, 8.65 mg/kg (40 μmol/kg) split in two 6 h apart, capsules fed, day 35
[9] = female, Beagle, dog, in vivo, po, 17.3 mg/kg, dog 3F, 0295AD, 17.3 mg/kg (80 μmol/kg) split in two 6 h apart, capsules fed, day 7
[10] = female, Beagle, dog, in vivo, po, 17.3 mg/kg, dog 3F, 0295AD, 17.3 mg/kg (80 μmol/kg) split in two 6 h apart, capsules fed, day 35

In the case of c1cnc2c(c1)C[C@@]1(CN3CCC1CC3)O2 [AZD0328, (R)-Spiro[1-azabicyclo[2.2.2]octane-3,2′(3′H)-furo[2,3-b]pyridine]], the mutagenicity (Ames test) is reported as “not mutagenic”, the AUC (Multiple dose PK/TK, dog; [1]) is reported as 4430 ng·h/mL and 20.5 µM·h and the Cmax (Multiple dose PK/TK, dog; [1]) is reported as 694 ng/mL and 3.21 µM. For the same molecule, the Tmax (Multiple dose PK/TK, dog; [1]) was 1 to 3 h, the AUC (Multiple dose PK/TK, dog; [2]) was 6970 ng·h/mL and 32.2 µM·h and the Cmax (Multiple dose PK/TK, dog; [2]) was 2120 ng/mL and 9.79 µM. For the same molecule, the Tmax (Multiple dose PK/TK, dog; [2]) was 1 h, the AUC (Multiple dose PK/TK, dog; [3]) was 4890 ng·h/mL and 22.6 µM·h and the Cmax (Multiple dose PK/TK, dog; [3]) was 1130 ng/mL and 5.2 µM. The Tmax (Multiple dose PK/TK, dog; [3]) was 0.5 h, the AUC (Multiple dose PK/TK, dog; [4]) was 7200 ng·h/mL and 33.3 µM·h and the Cmax (Multiple dose PK/TK, dog; [4]) was 1560 ng/mL and 7.22 µM. For the same molecule, the Tmax (Multiple dose PK/TK, dog; [4]) was 0.5 to 1 h, the AUC (Multiple dose PK/TK, dog; [5]) was 11900 ng·h/mL and 55 µM·h and the Cmax (Multiple dose PK/TK, dog; [5]) was 1520 ng/mL and 7.04 µM. The Tmax (Multiple dose PK/TK, dog; [5]) was 1 to 6 h, the AUC (Multiple dose PK/TK, dog; [6]) was 7160 ng·h/mL and 33.1 µM·h and the Cmax (Multiple dose PK/TK, dog; [6]) was 1360 ng/mL and 6.27 µM. It also gave a Tmax (Multiple dose PK/TK, dog; [6]) of 0.5 to 6 h, an AUC/dose (Multiple dose PK/TK, dog; dog 2F+2M, 0190DD, 34.6 mg/kg (160 μmol/kg) split in two 6 h apart, capsules fasted, day 1) of 0.128 ± 0.087 and an AUC/dose (Multiple dose PK/TK, dog; dog 2F+2M, 0190DD, 34.6 mg/kg (160 μmol/kg) split in two 6 h apart, solution fasted, day 1) of 0.141 ± 0.014. The AUC/dose (Multiple dose PK/TK, dog; dog 2F+2M, 0190DD, 34.6 mg/kg (160 μmol/kg) split in two 6 h apart, solution fasted, day 7) was 0.208 ± 0.088, the AUC/dose (Multiple dose PK/TK, dog; dog 2F+2M, 0190DD, 138 mg/kg (640 μmol/kg) split in two 6 h apart, capsules fed, day 1) was 0.0859 ± 0.0530 and the AUC/dose (Multiple dose PK/TK, dog; dog 2F+2M, 0190DD, 138 mg/kg (640 μmol/kg) split in two 6 h apart, capsules fed, day 7) was 0.0517 ± 0.0206. The AUC/dose (Multiple dose PK/TK, dog; dog 3F, 0295AD, 8.65 mg/kg (40 μmol/kg) split in two 6 h apart, capsules fed, day 7) was 0.113 ± 0.038, the AUC/dose (Multiple dose PK/TK, dog; dog 3F, 0295AD, 8.65 mg/kg (40 μmol/kg) split in two 6 h apart, capsules fed, day 35) was 0.107 ± 0.017 and the AUC/dose (Multiple dose PK/TK, dog; dog 3F, 0295AD, 17.3 mg/kg (80 μmol/kg) split in two 6 h apart, capsules fed, day 7) was 0.246 ± 0.092. For the same molecule, the AUC/dose (Multiple dose PK/TK, dog; dog 3F, 0295AD, 17.3 mg/kg (80 μmol/kg) split in two 6 h apart, capsules fed, day 35) was 0.233 ± 0.049, the AUC/dose (Multiple dose PK/TK, dog; dog 3M, 0295AD, 8.65 mg/kg (40 μmol/kg) split in two 6 h apart, capsules fed, day 7) was 0.100 ± 0.051 and the AUC/dose (Multiple dose PK/TK, dog; dog 3M, 0295AD, 8.65 mg/kg (40 μmol/kg) split in two 6 h apart, capsules fed, day 35) was 0.145 ± 0.039. It also gave an AUC/dose (Multiple dose PK/TK, dog; dog 3M, 0295AD, 17.3 mg/kg (80 μmol/kg) split in two 6 h apart, capsules fed, day 7) of 0.223 ± 0.047, an AUC/dose (Multiple dose PK/TK, dog; dog 3M, 0295AD, 17.3 mg/kg (80 μmol/kg) split in two 6 h apart, capsules fed, day 35) of 0.196 ± 0.008 and an AUC/dose (Multiple dose PK/TK, dog; dog 6F, 0295AD, 26.0 mg/kg (120 μmol/kg) split into 17.3 and 8.7 mg/kg 6 h apart, capsules fed, day 35) of 0.133 ± 0.036. For the same molecule, the AUC/dose (Multiple dose PK/TK, dog; dog 6M, 0295AD, 26.0 mg/kg (120 μmol/kg) split into 17.3 and 8.7 mg/kg 6 h apart, capsules fed, day 35) was 0.174 ± 0.029, the AUC/dose (Multiple dose PK/TK, dog; dog 6M, 0295AD, 34.6 mg/kg (160 μmol/kg) split in two 6 h apart, capsules fed, day 7) was 0.152 ± 0.075 and the AUC (Multiple dose PK/TK, dog; [7]) was 981 ng·h/mL and 4.53 µM·h. The Cmax (Multiple dose PK/TK, dog; [7]) was 302 ng/mL and 1.39 µM, the Tmax (Multiple dose PK/TK, dog; [7]) was 1 to 7 h and the AUC (Multiple dose PK/TK, dog; [8]) was 924 ng·h/mL and 4.27 µM·h. The Cmax (Multiple dose PK/TK, dog; [8]) was 270 ng/mL and 1.25 µM, the Tmax (Multiple dose PK/TK, dog; [8]) was 1 to 9 h and the AUC at 7 day (Multiple dose PK/TK, dog; [9]) was 2130 ng·h/mL and 9.83 µM·h. For the same molecule, the Cmax at 7 day (Multiple dose PK/TK, dog; [9]) was 850 ng/mL and 3.93 µM, the Tmax at 7 day (Multiple dose PK/TK, dog; [9]) was 0.5 to 6.5 h and the AUC at 35 day (Multiple dose PK/TK, dog; [10]) was 2020 ng·h/mL and 9.33 µM·h. The Cmax at 35 day (Multiple dose PK/TK, dog; [10]) was 439 ng/mL and 2.03 µM.
